Assay results reported in patent US6531465B1 (priority 1995, dated 2003).

Assays:
[1] = tested on: Streptococcus pneumoniae, strain ATCC 49619; assay: Agar Dilution Test (NCCLS), Streptococcus pneumoniae; type: cell-based; settings: Example 139 tested in form of the trihydrochloride
Text: In particular, the active compounds of the invention show antimicrobial, e.g. antibacterial, activity against gram negative and gram positive bacteria such as Pseudomonas, e.g. Pseudomonas aeruginosa, Pseudomonas fluorescens; Enterobacter, e.g. Enterobacter cloacae; Enterococcus, e.g. Enterococcus faecalis; Moraxella, e.g. Moraxella catarrhalis; Haemophilus, e.g. Haemophilus influenza; Klebsiella, e.g. Klebsiella edwardsii, Klebsiella pneumoniae; Streptococcus, e.g. Streptococcus pneumoniae, Streptococcus durans, Streptococcus faecium, Streptococcus pyogenes; Staphylococcus, e.g. Staphylococcus aureus, Staphylococcus pyogenes; Escherichia, e.g. Escherichia coli; and Proteus, e.g. Proteus mirabilis in vitro in the Agar Dilution Test according to National Commitee for Clinical Laboratory Standards (NCCLS) 1993, Document M7-A3Vol.13, No. 25: “Methods for dilution Antimicrobial Susceptibility Tests for Bacteria that Grow Aerobically—Third Edition, Approved Standard” and in vivo in the septikaemic mouse model. The active compounds of the invention show activity in the mouse when administerd at dosages from about 0.05 to 50 mg/kg body weight (ED50 values).The active compounds show an MHK(μg/ml) in the Agar Dilution Test from about 0.005 to ca. 50. The active compounds of the invention show an surprising overall activity spectrum.

[2] = tested on: Pseudomonas aeruginosa strain 27853; assay: Agar Dilution Test (NCCLS), Pseudomonas aeruginosa; type: cell-based
Text: In particular, the active compounds of the invention show antimicrobial, e.g. antibacterial, activity against gram negative and gram positive bacteria such as Pseudomonas, e.g. Pseudomonas aeruginosa, Pseudomonas fluorescens; Enterobacter, e.g. Enterobacter cloacae; Enterococcus, e.g. Enterococcus faecalis; Moraxella, e.g. Moraxella catarrhalis; Haemophilus, e.g. Haemophilus influenza; Klebsiella, e.g. Klebsiella edwardsii, Klebsiella pneumoniae; Streptococcus, e.g. Streptococcus pneumoniae, Streptococcus durans, Streptococcus faecium, Streptococcus pyogenes; Staphylococcus, e.g. Staphylococcus aureus, Staphylococcus pyogenes; Escherichia, e.g. Escherichia coli; and Proteus, e.g. Proteus mirabilis in vitro in the Agar Dilution Test according to National Commitee for Clinical Laboratory Standards (NCCLS) 1993, Document M7-A3Vol.13, No. 25: “Methods for dilution Antimicrobial Susceptibility Tests for Bacteria that Grow Aerobically—Third Edition, Approved Standard” and in vivo in the septikaemic mouse model. […]
It has, for example, been determined that the MHK (μg/ml) of the compound of Example 139 against, for example Enterococcus faecalis strains ATTC 29212 or ATCC 51299, is of ca. 0.08 to 0.25; ainst Staphylococcus aureus strains ATCC 29213 or ATCC 9144 is of ca. 0.2 to 0.4 and against Pseudomonas aeruginosa strain 27853 is ca. 0.8.

| Molecule | MHK [1] | MHK [2] |
| --- | --- | --- |
| 7-[[(5-Amino-1,2,4-thiadiazol-3-yl)-(Z)-(fluormethoxyimino)acetyl]amino]-3-[[(piperazinoiminomethyl)hydrazono]methyl]-3-cephem-4-carboxylic acid [Example 139] | ca. 0.01 μg/ml | ca. 0.8 μg/ml |
| CO/N=C(\C(=O)N[C@@H]1C(=O)N2C(C(=O)O)=C(CSc3nc(=O)c(=O)[nH]n3C)CS[C@H]12)c1csc(N)n1 [ceftriaxone, reference compound] | ca. 0.02 μg/ml | – |
